In patent publication US20130195926A1, “MODULATION OF NITRIC OXIDE SIGNALING TO NORMALIZE TUMOR VASCULATURE” (The General Hospital Corporation, priority 2007, published 2013):

Key:
U87 tumors = assay: Fractionated radiation therapy of U87 tumors grown in the hind leg; format: in vivo, mice; conditions: 3 daily fractions of 8 Gy, compared to irradiated U87MG tumor bearing animals
Experimental: When tumors grown in the hindleg reached about 100 mm^3, animals were randomly assigned to radiation or control group (day 0). In the radiation groups, tumors were locally irradiated with three daily fractions, 8 Gy each, using a ^137Cs gamma irradiator (Hranitzky, E. B., et al. 1973 Radiology 107, 641-644) at a dose rate of approximately 5 Gy/min. The details of irradiation are described elsewhere (Kozin, S. V., et al. 2001 Cancer Research 61, 39-44). Tumor size was measured with a caliper at least every other day. The time taken for tumor to increase in volume 2×, 3×, 4×, 5×, 6×, and 7× of the initial volume (V0) was determined. Tumor growth delay was calculated as the difference of this parameter between irradiated tumors and nonradiated control tumors of the same genotype. Mice were euthanized when the tumors reached 12 mm in diameter. Survival time of individual animals (spontaneous death or by euthanasia at maximum tumor size) was determined after the start of radiation/control treatment.
The effect of radiation treatment on U87MG, U87-shRNA58 and U87-shRNA150 tumors was determined. Tumors were grown subcutaneously in the hind leg of Rag-1^−/− mice. When tumors reached ˜100 mm^3, they were randomly assigned to control and radiation treatment groups. […] Tumor growth and overall animal survival were monitored. […]

HIF-1α = assay: Western blot of HIF-1α expression in U87 tumors; format: in vivo; conditions: for HIF-1α protein levels, % of that in U87MG tumors: Western blot; for hypoxia inducible factor-1α (HIF-1α) protein levels: compared to U87MG tumors
Experimental: FIGS. 9A-E show the effect of nNOS silencing in U87 gliomas on tumor tissue oxygenation. Tissues shown in (A) were harvested and stained after injection of pimonidazole (60 mg/kg), followed by biotinylated lectin. Confocal laser scanning microscopy images (top row) of Hypoxyprobe™-1 adducts stained hypoxic cells (red), lectin-bound perfused blood vessels (green) and nuclei (blue) in U87MG, U87-shRNA58, and […] are 630 μm across. Binarized images (bottom row) of above confocal images. Bar indicates 100 μm. (B-C) Quantification of vessel segments (B) and vessel perimeter (C). (D) Quantification of hypoxic area. n=7, 3, 4 respectively. *p<0.05, as compared to U87MG tumors. (E) Western blot analysis of HIF-1α expression in U87MG and nNOS-snRNA-transfected U87 tumors. HIF-1α protein levels in U87-shRNA58 and U87-shRNA150 tumors were 46% and 59% of that in U87MG tumors, respectively. FIGS. 10A-C show the effect of nNOS silencing in U87 gliomas on fractionated radiation therapy. (A) Tumor growth normalized to day 0 tumor volume. (B) Tumor growth delay evaluated at the levels of 2, 4, and 6 times Vo. *P<0.05 as compared to U87MG. (C) Kaplan-Meier survival plot. U87 control (n=9), sh58 control (n=7), sh150 control (n=9), U87 radiation (n=8), sh58 radiation (n=6), sh150 radiation (n=10). FIGS. 11A-D show in vitro radiosensitivity and post-radiation tumor vasculature in U87 tumors. (A) Intrinsic tumor cell radiosensitivity was evaluated with the clonogenic assay. Following irradiation, the cells were incubated 9-13 d for colony formation depending on the dose administered. The surviving fractions were corrected for initial and final multiplicities determined 4-6 h after plating and at the time of irradiation. Data are expressed as mean±s.d. (B-D) When U87MG and nNOS-silenced U87 tumors grown in the hindleg in Rag-1^−/− mice reached ˜100 mm^3 they received 8 Gy/d for 3 d. […] (C-D) Quantification of the number of vessel segments (C) and vessel perimeter (D). […]
Equal amounts of 60 micrograms of protein per sample were separated on 7.5% SDS polyacrylamide gels, transferred onto polyvinylidene fluoride membrane (Millipore), incubated with primary antibodies followed by secondary antibodies (the same antibodies used in immunohistochemistry studies. See Immunohistochemistry methods below), and detected using enhanced chemiluminescence (GE Healthcare) by exposure on autoradiography films (Kodak) (Xu, L., et al. 2005 Cancer Res. 65, 5711-5719; Canneliet, P., et al. 1998 Nature 394, 485-490; Xu, L., et al. 2002 Journal of Biological Chemistry 277, 11368-11374 (2002); and Xu, L., et al. 2004 Clinical Cancer Research 10, 701-707).
The extent of hypoxia was determined in U87MG, U87-shRNA58, and U87-shRNA150 tumors utilizing a redox marker pimonidazole (Hypoxyprobe™-1 Kit, Millipore). […]

Substance	animal survival after radiation treatment (U87 tumors)	HIF-1α protein levels, % of that in U87MG tumors (HIF-1α) [%]	hypoxia inducible factor-1α (HIF-1α) protein levels (HIF-1α)
shRNA58: short-hairpin RNA for nNOS, CAAAGAGATCGACACCATC (sense), GATGGTGTCGATCTCTTTGTT (antisense), in pSilencer 3.1 H-1-hygro, stably transfected into U87MG	Significant extension	46	reduction
shRNA150: short-hairpin RNA for nNOS, GGTCTATCCAATGTCCACA (sense), TGTGGACATTGGATAGACCTT (antisense), in pSilencer 3.1 H-1-hygro	Significant extension	59	reduction
